Experimental data as given in EP4603105A1, “PHARMACEUTICAL COMPOSITION CONTAINING CYCLIC COMPOUND HAVING SELECTIVE KRAS INHIBITORY EFFECT AGAINST HRAS AND NRAS” (CHUGAI SEIYAKU KABUSHIKI KAISHA, priority 2022, dated 2024).
*1 amine or outer side, *2 acyl side, *3 side chain or, on linkers, in order; H or OH if unused. Where a SMILES comes first, the peptide text is derived from it. Bridges are numbered along the chain shown (N, C = ends). [ ]: non-standard residue; d: D form. The star is where a group is joined. hPhe(3,5-F2-4-CF3) = N[C@@H](CCc1cc(F)c(C(F)(F)F)c(F)c1)C(=O)O; hPhe(3-Cl-4-CF3) = N[C@@H](CCc1ccc(C(F)(F)F)c(Cl)c1)C(=O)O; NPrPhe(4-CF3) = CCCN[C@@H](Cc1ccc(C(F)(F)F)cc1)C(=O)O; X16 = O=C([C@@H](N[*:1])C1CC(F)(F)C1)[*:2]; NMeGly(cPent) = CN[C@H](C(=O)O)C1CCCC1; NEtLeu = CCN[C@@H](CC(C)C)C(=O)O; NMeD = CN[C@@H](CC(=O)O)C(=O)O; NMeL = CN[C@@H](CC(C)C)C(=O)O; Morpholide = C1CN(*)CCO1; NMeA = CN[C@@H](C)C(=O)O; Piperidide = C1CCN(*)CC1; Ac5c = NC1(C(=O)O)CCCC1; Aze = O=C(O)[C@@H]1CCN1; Ac4c = NC1(C(=O)O)CCC1; Sar = CNCC(=O)O

Columns and labels:
[1] = biological target: GDP-bound NRAS wild-type protein (Homo sapiens, UniProt P01111); test: Binding to NRAS by surface plasmon resonance (SPR), KD and KD ratio to KRAS
GDP-bound NRAS wild-type protein, sequence (P01111 whole entry): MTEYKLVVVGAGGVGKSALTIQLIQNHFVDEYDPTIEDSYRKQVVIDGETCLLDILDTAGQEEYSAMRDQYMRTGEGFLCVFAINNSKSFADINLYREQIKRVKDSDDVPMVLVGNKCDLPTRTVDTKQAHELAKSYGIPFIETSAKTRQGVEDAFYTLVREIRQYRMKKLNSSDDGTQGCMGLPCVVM
Protocol: (§1) Surface plasmon resonance was used to analyze the binding affinity of compounds for KRAS, NRAS, and HRAS. The apparatus used was Biacore 8K, 8K+, or T200 (GE Healthcare), and the running buffer used was HBS (10 mM HEPES-NaOH, 150 mM NaCl, pH 7.4) containing 1 mM DTT, 10 mM MgCl2, 0.01% Tween 20, 10 µM GDP, and 4% DMSO.
(§2) Biotinylated Avi-tag fusion KRAS, NRAS, and HRAS proteins were expressed in E. coli BL21 (DE3) strains, and after cells were homogenized, they were purified using Streptavidin Mutein Matrix and Superdex 75. After purification, GDP-loaded KRAS, NRAS, and HRAS proteins were immobilized on the surface of Sensor Chip CAP (Cytiva) coated with Biotin CAPture Reagent in an immobilization amount of about 100 to 300 RU. Binding of each compound was evaluated by the Single Cycle Kinetics method, and a running buffer or a compound solution was added to the RAS protein non-immobilized surface and the immobilized surface to obtain a binding response. The flow rate was set to 100 µL/min, and in the compound-adding cycle, compound solutions having different concentrations were intermittently added for 75 seconds each, starting from a low concentration. […] In the blank cycle, a running buffer was intermittently added and not the compound solution. The Biotin CAPture Reagent and RAS proteins were immobilized for each cycle, and at the end of each cycle, the sensor chip was regenerated by the regeneration solution appended to the Biotin CAPture Kit (Cytiva). Measurement was carried out at 30°C.
(§3) The resulting sensorgram was subjected to curve fitting based on a 1:1 binding model on Biacore Insight Evaluation Software or T200 Evaluation Software, and thereby the dissociation constant KD of each compound with respect to KRAS, NRAS, and HRAS was determined. […] Blank indicates a compound from which the KD value with respect to NRAS or HRAS was not obtained.

[2] = biological target: HRAS wild-type protein (Homo sapiens, UniProt P01112); test: Binding to HRAS by surface plasmon resonance (SPR), KD and KD ratio to KRAS
HRAS wild-type protein, sequence (P01112 whole entry): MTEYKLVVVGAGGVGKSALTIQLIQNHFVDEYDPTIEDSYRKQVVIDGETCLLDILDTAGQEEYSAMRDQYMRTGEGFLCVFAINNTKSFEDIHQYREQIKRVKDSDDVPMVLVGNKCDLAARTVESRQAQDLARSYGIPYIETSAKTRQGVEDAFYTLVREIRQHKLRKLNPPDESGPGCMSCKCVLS
Protocol: as §1, §2, §3

[3] = tested on: human lung cancer strain NCI-H441; format: cell-based
Method in brief: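 Step one: dispense the test compound in serial DMSO dilutions. Step three: add the reagent and measure […].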

[4] = ratio of the KD value with respect to GDP-bound NRAS wild-type protein to the KD value with respect to KRAS
[5] = ratio of the KD value with respect to HRAS wild-type protein to the KD value with respect to KRAS
[6] = ratio of KD for GDP-bound NRAS wild-type protein to KD for KRAS
[7] = ratio of KD for HRAS wild-type protein to KD for KRAS
[8] = ratio of KD value for GDP-bound NRAS wild-type protein to KD value for KRAS (SPR)
[9] = ratio of KD value for HRAS wild-type protein to KD value for KRAS (SPR)

Row | SMILES | IC50 [3] | NRAS /KRAS [1, 4] | HRAS /KRAS [2, 5] | NRAS /KRAS [1, 6] | HRAS /KRAS [2, 7] | NRAS /KRAS [1, 8] | HRAS /KRAS [2, 9]
1 | CCO[C@@H]1C[C@H]2C(=O)NC3(CCC3)C(=O)N(C)[C@@H](C3CCCC3)C(=O)N(C)[C@H](C(=O)N(C)C)CC(=O)N(C)[C@@H](C)C(=O)N[C@@H]([C@@H](C)CC)C(=O)N(C)CC(=O)N(C)[C@H]3CCCCCN(C3=O)[C@@H](Cc3ccc(C(F)(F)F)cc3)C(=O)N(C)CC(=O)N[C@@H](CCc3cc(F)c(C(F)(F)F)c(F)c3)C(=O)N2C1 [PP0476] | 4.9 nM | B (a compound having 3 or more and less than 10 is denoted as B) | B (a compound having 3 or more and less than 10 is denoted as B) |  |  |  | 
2 | CCCN1C(=O)CN(C)C(=O)CN(C)C(=O)[C@H](C2CC(F)(F)C2)NC(=O)[C@H](CC(C)C)N(C)C(=O)C[C@@H](C(=O)N2CCOCC2)N(C)C(=O)[C@H](C2CCCC2)N(C)C(=O)C2(CCCC2)NC(=O)[C@@H]2CCCN2C(=O)[C@H](CCc2cc(F)c(C(F)(F)F)c(F)c2)NC(=O)CN(C)C(=O)[C@@H]1Cc1ccc(C(F)(F)F)cc1 [PP0769] ([NMeL][X16][Sar][Sar][NPrPhe(4-CF3)][Sar][hPhe(3,5-F2-4-CF3)]P[Ac5c][NMeGly(cPent)][NMeD]-Morpholide; lactam N-11) | 43.3 nM |  |  | B (a compound having 3 or more and less than 10 is denoted as B) | C (A compound having a KD ratio of 0.1 or more and less than 3 is denoted as C) |  | 
3 | CC[C@H](C)[C@@H]1NC(=O)[C@H](CC(C)C)N(C)C(=O)C[C@@H](C(=O)N2CCCC2)N(C)C(=O)[C@H](C2CCCC2)N(C)C(=O)C2(CCCC2)NC(=O)[C@@H]2CCCN2C(=O)[C@H](CCc2cc(F)c(C(F)(F)F)c(F)c2)NC(=O)CN(C)C(=O)[C@H](Cc2ccc(C(F)(F)F)cc2)N2CCCCC[C@@H](C2=O)N(C)C(=O)CN(C)C1=O [PP0509] | 109 nM | B (a compound having 3 or more and less than 10 is denoted as B) | B (a compound having 3 or more and less than 10 is denoted as B) |  |  |  | 
4 | CCCN1C(=O)[C@@H]2CCN2C(=O)[C@H](C)N(C)C(=O)[C@H]([C@@H](C)CC)NC(=O)[C@H](CC(C)C)N(C)C(=O)C[C@@H](C(=O)N2CCCCC2)N(C)C(=O)[C@H](C2CCCC2)N(C)C(=O)C2(CCCC2)NC(=O)[C@@H]2CCCN2C(=O)[C@H](CCc2ccc(C(F)(F)F)c(Cl)c2)NC(=O)CN(C)C(=O)[C@@H]1Cc1ccc(C(F)(F)F)cc1 [PP0180] ([NMeL]I[NMeA][Aze][NPrPhe(4-CF3)][Sar][hPhe(3-Cl-4-CF3)]P[Ac5c][NMeGly(cPent)][NMeD]-Piperidide; lactam N-11) | 7.5 nM |  |  | C (A compound having a KD ratio of 0.1 or more and less than 3 is denoted as C) | C (A compound having a KD ratio of 0.1 or more and less than 3 is denoted as C) |  | 
5 | CCO[C@@H]1C[C@H]2C(=O)NC3(CCC3)C(=O)N(C)[C@@H](C3CCCC3)C(=O)N(C)[C@H](C(=O)N3CCCC3)CC(=O)N(C)[C@@H](CC)C(=O)N[C@@H]([C@@H](C)CC)C(=O)N(C)CC(=O)N(C)[C@H]3C/C=C\CCN(C3=O)[C@@H](Cc3ccc(C(F)(F)F)cc3)C(=O)N(C)CC(=O)N[C@@H](CCc3cc(F)c(C(F)(F)F)c(F)c3)C(=O)N2C1 [PP1090] | 20.9 nM |  |  | AA (a compound having 20 or more is denoted as AA) | A (a compound having 10 or more and less than 20 is denoted as A) |  | 

The next lines start with results.

Row | IC50 [3] | SMILES | NRAS /KRAS [1, 4] | HRAS /KRAS [2, 5] | NRAS /KRAS [1, 6] | HRAS /KRAS [2, 7] | NRAS /KRAS [1, 8] | HRAS /KRAS [2, 9]
6 | 7.1 nM | CCO[C@@H]1C[C@H]2C(=O)NC3(CCC3)C(=O)N(C)[C@@H](C3CCCC3)C(=O)N(C)[C@H](C(=O)N(C)C)CC(=O)N(C)[C@@H](Cc3cccc(F)c3)C(=O)N[C@@H]([C@@H](C)CC)C(=O)N(C)CC(=O)N(C)[C@H]3C/C=C\CCN(C3=O)[C@@H](Cc3ccc(C(F)(F)F)cc3)C(=O)N(C)CC(=O)N[C@@H](CCc3cc(F)c(C(F)(F)F)c(F)c3)C(=O)N2C1 [PP1126] |  |  | A (a compound having 10 or more and less than 20 is denoted as A) | A (a compound having 10 or more and less than 20 is denoted as A) |  | 
7 | 55.8 nM | CCO[C@@H]1C[C@H]2C(=O)NC3(CCC3)C(=O)N(C)[C@@H](C(CC)CC)C(=O)N(C)[C@H](CC)CC(=O)N(C)[C@@H](CC)C(=O)N[C@@H]([C@@H](C)CC)C(=O)N(C)CC(=O)N(C)[C@H]3C/C=C\CCN(C3=O)[C@@H](Cc3ccc(C(F)(F)F)cc3)C(=O)N(C)CC(=O)N[C@@H](CCc3cc(F)c(C(F)(F)F)c(F)c3)C(=O)N2C1 [PP1624] |  |  |  |  | A (a compound having 10 or more and less than 20 is denoted as A) | A (a compound having 10 or more and less than 20 is denoted as A)
8 | 4.5 nM | CCO[C@@H]1C[C@H]2C(=O)NC3(CC(C)(C)C3)C(=O)N(C)[C@@H](C3CCCC3)C(=O)N(C)[C@H](CC)CC(=O)N(C)[C@@H](CC)C(=O)N[C@@H]([C@@H](C)CC)C(=O)N(C)CC(=O)N(C)[C@H]3C/C=C\CCN(C3=O)[C@@H](Cc3ccc(C(F)(F)F)cc3)C(=O)N(C)CC(=O)N[C@@H](CCc3cc(F)c(C(F)(F)F)c(F)c3)C(=O)N2C1 [PP1623] |  |  |  |  | A (a compound having 10 or more and less than 20 is denoted as A) | A (a compound having 10 or more and less than 20 is denoted as A)
9 | 2.8 nM | CCCOC[C@H]1C(=O)N[C@@H]([C@@H](C)CC)C(=O)N(C)CC(=O)N(C)[C@H]2C/C=C\CCN(C2=O)[C@@H](Cc2ccc(C(F)(F)F)cc2)C(=O)N(C)CC(=O)N[C@@H](CCc2cc(F)c(C(F)(F)F)c(F)c2)C(=O)N2C[C@H](OCC)C[C@H]2C(=O)NC2(CCC2)C(=O)N(C)[C@@H](C2CCCC2)C(=O)N(C)[C@H](C(=O)N(C)CC)CC(=O)N1C [PP1569] |  |  |  |  | A (a compound having 10 or more and less than 20 is denoted as A) | B (a compound having 3 or more and less than 10 is denoted as B)
10 | 150 nM | CCO[C@@H]1C[C@H]2C(=O)NC3(CC(C)(C)C3)C(=O)N(C)[C@@H](C(CC)CC)C(=O)N(C)[C@H](CC)CC(=O)N(C)[C@@H](CC3CC3)C(=O)N[C@@H]([C@@H](C)CC)C(=O)N(C)CC(=O)N(C)[C@H]3C/C=C\CCN(C3=O)[C@@H](Cc3ccc(C(F)(F)F)cc3)C(=O)N(C)CC(=O)N[C@@H](CCc3cc(F)c(C(F)(F)F)c(F)c3)C(=O)N2C1 [PP1628] |  |  |  |  | A (a compound having 10 or more and less than 20 is denoted as A) | A (a compound having 10 or more and less than 20 is denoted as A)
11 | 15.2 nM | CCCN1C(=O)CN(C)C(=O)CN(C)C(=O)[C@H]([C@@H](C)CC)NC(=O)[C@H](CC(C)C)N(CC)C(=O)C[C@@H](C(=O)N2CCOCC2)N(C)C(=O)[C@H](C2CCCC2)N(C)C(=O)C2(CCC2)NC(=O)[C@@H]2CCCN2C(=O)[C@H](CCc2ccc(C(F)(F)F)c(Cl)c2)NC(=O)CN(C)C(=O)[C@@H]1Cc1ccc(C(F)(F)F)cc1 [PP1946] ([NEtLeu]I[Sar][Sar][NPrPhe(4-CF3)][Sar][hPhe(3-Cl-4-CF3)]P[Ac4c][NMeGly(cPent)][NMeD]-Morpholide; lactam N-11) | B (a compound having 3 or more and less than 10 is denoted as B) | C (A compound having a KD ratio of 0.1 or more and less than 3 is denoted as C) |  |  |  | 
12 | 5.4 nM | CCC[C@H]1C(=O)N[C@@H]([C@@H](C)CC)C(=O)N(C)CC(=O)N(C)[C@H]2C/C=C\CCN(C2=O)[C@@H](Cc2ccc(C(F)(F)F)cc2)C(=O)N(C)CC(=O)N[C@@H](CCc2ccc(C(F)(F)F)c(OC)c2)C(=O)N2C[C@H](OCC)C[C@H]2C(=O)NC2(CC(C)(C)C2)C(=O)N(C)[C@@H](C(CC)CC)C(=O)N(C)[C@H](C(=O)N(C)C)CC(=O)N1C [PP2160] | A (a compound having 10 or more and less than 20 is denoted as A) | A (a compound having 10 or more and less than 20 is denoted as A) |  |  |  | 
13 | 9.7 nM | CCO[C@@H]1C[C@H]2C(=O)NC3(CC(C)(C)C3)C(=O)N(C)[C@@H](C(CC)CC)C(=O)N(C)[C@H](C(=O)N(C)C)CC(=O)N(C)[C@@H](CC)C(=O)N[C@@H]([C@@H](C)CC)C(=O)N(C)CC(=O)N(C)[C@H]3C/C=C\CCN(C3=O)[C@@H](Cc3ccc(C)cc3)C(=O)N(C)CC(=O)N[C@@H](CCc3cc(F)c(C(F)(F)F)c(F)c3)C(=O)N2C1 [PP2147] | A (a compound having 10 or more and less than 20 is denoted as A) | B (a compound having 3 or more and less than 10 is denoted as B) |  |  |  | 
